This assay relates to P388 leukemia ip, CD2F1 mice, survival T/C. Kind of assay: NCI In Vivo Anticancer Drug Screen. Data for tumor model P388 Leukemia (intraperitoneal) in CD2F1 (CDF1) mice. As to conditions: endpoint: median survival time, higher = longer survival. The essentials: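 Mice carrying the transplanted tumor received test compound or vehicle. Survival was recorded in each group, and the value is the treated-group measurement divided by that of the vehicle-treated control group.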

The mark [1] stands for this setting: dose: 50.0 mg/kg/injection, schedule: Q01DX005 (ip), vehicle: Klucel (hydroxypropylcellulose) (HPC).
[2] abbreviates: dose: 100.0 mg/kg/injection, schedule: Q01DX005 (ip), vehicle: Klucel (hydroxypropylcellulose) (HPC).
The mark [3] stands for this setting: dose: 200.0 mg/kg/injection, schedule: Q01DX005 (ip), vehicle: Klucel (hydroxypropylcellulose) (HPC).
[4] abbreviates: dose: 50.0 mg/kg/injection, schedule: Q01DX005 (ip), vehicle: saline with Tween-80.
The mark [5] stands for this setting: dose: 100.0 mg/kg/injection, schedule: Q01DX005 (ip), vehicle: saline with Tween-80.
[6] abbreviates: dose: 200.0 mg/kg/injection, schedule: Q01DX005 (ip), vehicle: saline with Tween-80.
[7] abbreviates: dose: 100.0 mg/kg/injection, schedule: Q04DX002 (ip), vehicle: saline with Tween-80.
[8] abbreviates: dose: 200.0 mg/kg/injection, schedule: Q04DX002 (ip), vehicle: saline with Tween-80.
Where [9] appears, read: dose: 50.0 mg/kg/injection, schedule: Q01DX009 (ip), vehicle: Klucel (hydroxypropylcellulose) (HPC).
Setting [10] is: dose: 100.0 mg/kg/injection, schedule: Q01DX009 (ip), vehicle: Klucel (hydroxypropylcellulose) (HPC).
[11] abbreviates: dose: 200.0 mg/kg/injection, schedule: Q01DX009 (ip), vehicle: Klucel (hydroxypropylcellulose) (HPC).

SMILES strings stand for the structures. Where “and” joins values, the source holds several entries; their conditions need not be identical. Equal values may be shown once. Inconclusive results and toxic doses are left out.

Turning to `CCC/C=C/C=C/C(=O)OC1C(C)C2(O)C3C=C(C)C(=O)C3CC(COC(C)=O)=CC2C2C(C)(C)C12OC(=O)C(C)C` (stereo not drawn), the T/C is, setting by setting: (dose: 0.12 mg/kg/injection, schedule: Q01DX009 (ip), vehicle: Klucel (hydroxypropylcellulose) (HPC)) 111 % of control; (dose: 0.25 mg/kg/injection, schedule: Q01DX009 (ip), vehicle: Klucel (hydroxypropylcellulose) (HPC)) 103 % of control; (dose: 0.5 mg/kg/injection, schedule: Q01DX009 (ip), vehicle: Klucel (hydroxypropylcellulose) (HPC)) 107 % of control; (dose: 1.0 mg/kg/injection, schedule: Q01DX005 (ip), vehicle: distilled water + Tween-80) 109 % of control and 113 % of control; (dose: 1.0 mg/kg/injection, schedule: Q01DX009 (ip), vehicle: Klucel (hydroxypropylcellulose) (HPC)) 106 % of control; (dose: 2.0 mg/kg/injection, schedule: Q01DX005 (ip), vehicle: distilled water + Tween-80) 121 % of control and 123 % of control. The T/C was 115 % of control (dose: 2.0 mg/kg/injection, schedule: Q01DX005 (ip), vehicle: saline + alcohol) and 123 % of control (dose: 4.0 mg/kg/injection, schedule: Q01DX005 (ip), vehicle: saline + alcohol).

Consider `CN1C(=O)C23CCCN2C(=O)C1(C)SC(=N)S3` (stereo not drawn), for which the T/C by setting is: (dose: 25.0 mg/kg/injection, schedule: Q04DX003 (ip), vehicle: suspension in saline) 101 % of control; (dose: 50.0 mg/kg/injection, schedule: Q04DX003 (ip), vehicle: suspension in saline) 95 % of control; (dose: 100.0 mg/kg/injection, schedule: Q04DX003 (ip), vehicle: suspension in saline) 95 % of control.

As to `Cc1ccc(NCCNCC(O)CO)c2c(=O)c3ccccc3sc12` (stereo not drawn), the T/C reads like this: (dose: 12.5 mg/kg/injection, schedule: Q01DX005 (ip), vehicle: Klucel (hydroxypropylcellulose) (HPC)) 109 % of control; (dose: 25.0 mg/kg/injection, schedule: Q01DX005 (ip), vehicle: Klucel (hydroxypropylcellulose) (HPC)) 118 % of control; (dose: 50.0 mg/kg/injection, schedule: Q01DX005 (ip), vehicle: saline) 151 % of control.

For the compound `O=C(c1ccccc1)C(c1ccccc1)n1ncc2c1CCC2` (stereo not drawn), the T/C runs as follows: (dose: 100.0 mg/kg/injection, schedule: Q04DX003 (ip), vehicle: Klucel (hydroxypropylcellulose) (HPC)) 105 % of control; (dose: 200.0 mg/kg/injection, schedule: Q04DX003 (ip), vehicle: Klucel (hydroxypropylcellulose) (HPC)) 100 % of control; (dose: 400.0 mg/kg/injection, schedule: Q04DX003 (ip), vehicle: Klucel (hydroxypropylcellulose) (HPC)) 103 % of control.

With `Nc1nc(-c2ccccc2)c(CCCNc2ccc(C(=O)NC(CCC(=O)O)C(=O)O)cc2)c(=O)[nH]1` (stereo not drawn), the T/C is 102 % of control under setting [1], 102 % of control under setting [2] and 106 % of control under setting [3].

Regarding `CC(=O)n1nc(Cl)c2cccnc2c1=O`, the T/C reads like this: under setting [4], 98 % of control; under setting [5], 99 % of control; under setting [6], 107 % of control.

For `CCCCCCC(=O)/C=C/c1cccc(OCOCC)c1`, the T/C (dose: 50.0 mg/kg/injection, schedule: Q01DX009 (ip), vehicle: saline with Tween-80) was 111 % of control and 113 % of control and 122 % of control; the T/C (dose: 100.0 mg/kg/injection, schedule: Q01DX009 (ip), vehicle: saline with Tween-80) is 115 % of control and 122 % of control; the T/C (dose: 200.0 mg/kg/injection, schedule: Q01DX009 (ip), vehicle: saline with Tween-80) is 108 % of control and 119 % of control.

Turning to `CCC(C)C1(O)OC2CC3(C)OC(=CC3=O)/C(C)=C\C3OC(=O)C1(C)C32` (stereo not drawn), the T/C was 96 % of control (dose: 10.0 mg/kg/injection, schedule: Q01DX005 (ip), vehicle: saline + alcohol); 100 % of control (dose: 20.0 mg/kg/injection, schedule: Q01DX005 (ip), vehicle: saline + alcohol); 105 % of control (dose: 40.0 mg/kg/injection, schedule: Q01DX005 (ip), vehicle: saline + alcohol); 99 % of control (dose: 80.0 mg/kg/injection, schedule: Q01DX005 (ip), vehicle: saline + alcohol).

`O=C1CSC(c2cccs2)N1CCN1C(=O)CSC1c1cccs1` (stereo not drawn): the T/C reads like this: under setting [7], 100 % of control; under setting [8], 96 % of control.

For the compound `COc1cccc2c1C(=O)c1ccccc1-2`, the T/C under setting [1] is 102 % of control, the T/C under setting [2] is 102 % of control and the T/C under setting [3] was 91 % of control.

Regarding `COc1cc(C(O)(CCN2CCOCC2)c2ccc3c(c2)OCO3)cc(OC)c1OC` (stereo not drawn), the T/C is, setting by setting: under setting [1], 91 % of control; under setting [2], 87 % of control.

Consider `C#CC(C)OCC(C)OC(C)=O` (stereo not drawn), for which the T/C by setting is: (dose: 150.0 mg/kg/injection, schedule: Q01DX009 (ip), vehicle: saline with Tween-80) 88 % of control; (dose: 225.0 mg/kg/injection, schedule: Q01DX009 (ip), vehicle: saline with Tween-80) 88 % of control.

With `COc1ccc(N2C(=O)C3C4C=CC(C3C2=O)N(C)C4=O)cc1` (stereo not drawn), the T/C is, setting by setting: under setting [7], 101 % of control; under setting [8], 98 % of control; (dose: 400.0 mg/kg/injection, schedule: Q04DX002 (ip), vehicle: saline with Tween-80) 87 % of control.

As for `CCCN(CCC)c1nnc([N+](=O)[O-])s1`, the T/C reads like this: (dose: 50.0 mg/kg/injection, schedule: Q01DX001 (ip), vehicle: other) 104 % of control; (dose: 100.0 mg/kg/injection, schedule: Q01DX001 (ip), vehicle: other) 100 % of control; (dose: 200.0 mg/kg/injection, schedule: Q01DX001 (ip), vehicle: other) 104 % of control.

Consider `CC(C)N=C1CCCC1C(=S)SSC(=S)C1CCCC1=NC(C)C` (stereo not drawn), for which the T/C is 99 % of control under setting [9], 99 % of control under setting [10] and 100 % of control under setting [11].

On to `NC(N)=NC(N)=Nc1ccc2ccc3cccc4ccc1c2c34`, for which the T/C is, setting by setting: (dose: 100.0 mg/kg/injection, schedule: Q04DX003 (ip), vehicle: saline with Tween-80) 106 % of control; (dose: 200.0 mg/kg/injection, schedule: Q04DX003 (ip), vehicle: saline with Tween-80) 111 % of control.

Turning to `c1ccc2c(c1)ccc1c3ccccc3sc21`, the T/C is, setting by setting: under setting [1], 101 % of control; under setting [2], 110 % of control; under setting [3], 103 % of control.

With `COC(=O)c1nnn(-c2ccc(C)c(C)c2)c1N`, the T/C by setting is: (dose: 60.0 mg/kg/injection, schedule: Q01DX005 (ip), vehicle: saline with Tween-80) 90 % of control; (dose: 120.0 mg/kg/injection, schedule: Q01DX005 (ip), vehicle: saline with Tween-80) 93 % of control; (dose: 240.0 mg/kg/injection, schedule: Q01DX005 (ip), vehicle: saline with Tween-80) 94 % of control.

`O=COCC(C(=O)O)c1ccccc1` (stereo not drawn): the T/C reads like this: under setting [4], 102 % of control; under setting [5], 94 % of control; under setting [6], 95 % of control.

As for `C/C(=N\NC(=S)Nc1ccc(C(=O)O)cc1)c1ccc2ccccc2n1`, the T/C under setting [4] is 105 % of control and the T/C under setting [5] was 114 % of control.

Take `c1cc2c(cn1)Sc1cnccc1N2`: the T/C is, setting by setting: (dose: 6.25 mg/kg/injection, schedule: Q01DX009 (ip), vehicle: distilled water + Tween-80) 90 % of control; (dose: 25.0 mg/kg/injection, schedule: Q01DX009 (ip), vehicle: distilled water + Tween-80) 107 % of control.

Take `Oc1ccccc1/C=N/NC(=S)NC1CC2C=CC1C2` (stereo not drawn): the T/C (dose: 12.5 mg/kg/injection, schedule: Q01DX009 (ip), vehicle: olive oil, sesame oil, peanut oil) was 100 % of control; the T/C (dose: 25.0 mg/kg/injection, schedule: Q01DX009 (ip), vehicle: olive oil, sesame oil, peanut oil) was 102 % of control; the T/C (dose: 50.0 mg/kg/injection, schedule: Q01DX009 (ip), vehicle: olive oil, sesame oil, peanut oil) was 97 % of control; the T/C (dose: 100.0 mg/kg/injection, schedule: Q01DX009 (ip), vehicle: olive oil, sesame oil, peanut oil) was 97 % of control; the T/C (dose: 200.0 mg/kg/injection, schedule: Q01DX009 (ip), vehicle: olive oil, sesame oil, peanut oil) is 102 % of control; the T/C (dose: 400.0 mg/kg/injection, schedule: Q01DX009 (ip), vehicle: olive oil, sesame oil, peanut oil) was 97 % of control.

For `CCC12Nc3ccccc3C(CC)(C1=O)C(c1ccccc1)=C2c1ccccc1` (stereo not drawn), the T/C runs as follows: under setting [9], 115 % of control; under setting [10], 106 % of control; under setting [11], 115 % of control.

For `CC(O)C(O)C=O` (stereo not drawn), the T/C (dose: 248.0 mg/kg/injection, schedule: Q01DX010 (ip), vehicle: saline) was 110 % of control.

The values are drawn from PubChem BioAssay AID330 (DTP/NCI, 2004).
